Non-standard residues stand in square brackets, D forms with d. No end group written: not given here.
What was measured:
[1] = test system: guinea pig ileum longitudinal muscle with adhering myenteric plexus; test: Guinea pig ileum test (inhibition of electrically induced twitch of longitudinal muscle strips); type: cell-based; conditions: ratio of IC50 of reference Met^5-enkephalin to IC50 of test compound in the same preparation, averaged (N=4); reference given as 100
Protocol: Adult male guinea pigs (Charles River, Hartley strain) weighing 300-500 g. are decapitated, and the terminal ileum is exposed by reflecting the overlying cecum, severed at the ileocecal juncture, and removed while cutting the mesenteric attachments to avoid excessive traction on the tissue. The ileum (about 30 cm. in length) is transferred to a beaker containing warm modified Krebs-Henseleit solution (118 mM sodium chloride, 4.75 mM potassium chloride, 2.54 mM calcium chloride, 1.19 mM potassium dihydrogen phosphate, 1.2 mM magnesium sulfate, 25 mM sodium bicarbonate, 11 mM glucose, 20 μM choline chloride and 0.125 μM pyrilamine maleate). The terminal (aboral) portion (about 10 cm, in length) is discarded, and segments (3-4 cm. in length) are cut from the remainder and gently slid onto a glass rod (5-6 mm. in diameter) and arranged so that the mesenteric attachment is in a straight line. A cotton swab moistened in the solution is then carefully used to separate the longitudinal muscle from the underlying circular muscle. The longitudinal muscle and adhering myenteric plexus is then gently removed from the remaining tissue with forceps.
Strips of thus prepared longitudinal muscle are mounted in a double-jacketed organ bath (5 ml.) under tension (1.0 g.), connected to isometric transducers (Grass FT 0.03), bathed in the modified Krebs-Henseleit solution described above, aerated with oxygen-carbon dioxide (95:5) and maintained at 37° C.
Stimulators (Grass S-44) are set to deliver repetitive, monophasic square wave field stimulation (supramaximal voltage, 0.10 Hz., 0.25 msec. duration) through platinum ring electrodes at the top and bottom of the bath. Regular contractions of the muscle, which result from electrically-induced liberation of acetylcholine from postganglionic parasympathetic nerves, are recorded on a polygraph (Grass model 5). Following tissue equilibration (45-60 min.) and repeated washing (every 10 min.) an aqueous solution of a reference or test compound is added to the bath in a microliter volume (1.25-250 μl) and reductions in muscle twitch height are recorded. More compound can be added […] first washing the preparation.
From the results a half-maximal inhibitory concentration (IC50) value for the compound is computed by regression analysis of a linear plot of logarithm of concentration against percent of inhibition of twitch height (probits). The ratio of the IC50 value of a reference compound to that of a test compound tested in the same preparation is the molar potency ratio. At least four preparations are tested simultaneously (N=4), and the resulting molar potency ratios are averaged.
The following results were obtained using the examples as test compounds and Met^5 -enkephalin as the reference compound: […]

[2] = test system: guinea pig ileum longitudinal muscle with adhering myenteric plexus; conditions: Vavrek et al., Abstract P-76, 1981; cited from earlier work

| Compound | Average Molar Potency Ratio [1] | activity as % of Met-enkephalin on the stimulated guinea pig ileum [2] |
| --- | --- | --- |
| CC(C)CCNC(=O)[C@H](Cc1ccccc1)NC(=O)[C@@H](C)NC(=O)[C@@H](N)Cc1ccc(O)cc1 [Example 1, L-tyrosyl-D-alanyl-N-(3-methylbutyl)-L-phenylalaninamide] | 25 |  |
| CC(C)CCN(CCc1ccccc1)C(=O)[C@H](Cc1ccccc1)NC(=O)[C@@H](C)NC(=O)[C@@H](N)Cc1ccc(O)cc1 [Example 2, L-tyrosyl-D-alanyl-N-(3-methylbutyl)-N-(2-phenylethyl)-L-phenylalaninamide] | 6 |  |
| CC(C)CCNC(=O)[C@H](Cc1ccccc1)NC(=O)[C@@H](CN(C)C)NC(=O)[C@@H](N)Cc1ccc(O)cc1 [Example 3, L-tyrosyl-3-(dimethylamino)-D-alanyl-N-(3-methylbutyl)-L-phenylalaninamide] | 5 |  |
| D,L-N-(3-methylbutyl)-2-[(L-tryosyl-D-alanyl)amino]benzenepentanamide [Example 7] | 5 |  |
| Met^5 -enkephalin [reference compound] | 100 |  |
| Tyr-[dA]-Phe-NH2 |  | 25% |
